Laboratory results published in patent publication US4414207A, “Rutin poly(H-)sulfate salts and related compounds” (American Cyanamid Company, priority 1982, dated 1983).

Columns and labels:
activated human C1 = target: T1, activated human C1 (Homo sapiens, UniProt P09871); test: Test Code 026 (C1 inhibitor); type: biochemical; conditions: serial dilution assay, twofold dilutions; higher well number indicates higher activity
T1 sequence (P09871 438-688 limits assumed): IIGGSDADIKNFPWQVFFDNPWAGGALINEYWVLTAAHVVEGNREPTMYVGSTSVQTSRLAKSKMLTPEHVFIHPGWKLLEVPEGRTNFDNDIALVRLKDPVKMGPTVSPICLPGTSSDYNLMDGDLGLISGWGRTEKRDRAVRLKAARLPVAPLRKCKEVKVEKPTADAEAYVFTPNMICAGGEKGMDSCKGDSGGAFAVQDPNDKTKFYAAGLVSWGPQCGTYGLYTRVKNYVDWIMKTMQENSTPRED
T1 sequence (P09871 16-437 limits assumed): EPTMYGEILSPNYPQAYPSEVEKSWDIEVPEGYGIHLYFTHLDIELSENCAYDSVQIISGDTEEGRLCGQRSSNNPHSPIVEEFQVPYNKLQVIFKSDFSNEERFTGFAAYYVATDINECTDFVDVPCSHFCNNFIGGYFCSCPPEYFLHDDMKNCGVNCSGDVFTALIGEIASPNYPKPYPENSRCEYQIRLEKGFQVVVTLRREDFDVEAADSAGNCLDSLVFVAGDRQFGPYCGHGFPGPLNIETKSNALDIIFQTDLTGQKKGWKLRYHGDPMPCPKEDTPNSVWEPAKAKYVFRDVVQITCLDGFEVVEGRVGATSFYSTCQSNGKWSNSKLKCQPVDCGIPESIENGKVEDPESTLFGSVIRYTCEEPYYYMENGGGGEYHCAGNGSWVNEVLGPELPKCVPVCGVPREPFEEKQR
Description: (§1) An active inhibitor protects C2 from C1 and C4; (ii) Test Code 035 (C3-C9 inhibitor)--This test determines the ability of the late components of human complement (C3-C9) to lyse EAC 142 in the presence of appropriate dilutions of the test compound. An active inhibitor protects EAC 142 from lysis by human C3-C9; (iii) Test Code 036 (C-Shunt inhibitor)--In this test human erythrocytes rendered fragile are lysed in autologous serum via the shunt pathway activated by cobra venom factor in the presence of appropriate dilutions of the test compound. Inhibition of the shunt pathway results in failure of lysis; (iv) Forssman Vasculitis Test--Here, the well known complement dependent lesions, Forssman vasculitis, is produced in guinea pigs by intradermal injection of rabbit anti-Forssman antiserum. The lesion is measured in terms of diameter, edema and hemorrhage and the extent to which a combined index of these is inhibited by prior intraperitoneal injection of the test compound at 200 mg/kg is then reported, unless otherwise stated; (v) Forssman Shock Test--Lethal shock is produced in guinea pigs by an i.v. injection of anti-Forssman antiserum and the harmonic mean death time of treated guinea pigs is compared with that of simultaneous controls; (vi) Complement Level Reduction Test--In this test, the above dosed guinea pigs, or others, are bled for serum and the complement level is determined in undiluted serum by the capillary tube method of U.S. Pat. No. 3,876,376 and compared to undosed control guinea pigs; and (vii) Cap 50 Test--Here, appropriate amounts of the test compound are added to a pool of guinea pig serum in vitro, after which the undiluted serum capillary tube assay referred to above is run. The concentration of compound inhibiting 50% is reported, (viii) Guinea Pig Intraperitoneal Test (GPIP)--Guinea Pigs weighing about 300 g. are dosed intraperitoneally (i.p.) with 200 mg/kg of the test compound dissolved in saline and adjusted to pH 7-8. […] Percent inhibition are calculated by comparison with simultaneous controls. […]

[1] = test system: late components of human complement (C3-C9); test: Test Code 035 (C3-C9 inhibitor); type: biochemical; conditions: lysis of EAC 142 by human C3-C9
Description: as §1

[2] = test system: shunt pathway activated by cobra venom factor; test: Test Code 036 (C-Shunt inhibitor); type: cell-based; conditions: fragile human erythrocytes in autologous serum
Description: as §1

[3] = test system: complement activity of sera; test: Guinea Pig Intraperitoneal Test (GPIP); type: in vivo; conditions: 200 mg/kg i.p.
Description: as §1

guinea pigs = test: Forssman Shock Test; type: in vivo, guinea pig; conditions: i.v. anti-Forssman antiserum, Control 3.3
Description: (§2) An active inhibitor protects C2 from C1 and C4; (ii) Test Code 035 (C3-C9 inhibitor)--This test determines the ability of the late components of human complement (C3-C9) to lyse EAC 142 in the presence of appropriate dilutions of the test compound. An active inhibitor protects EAC 142 from lysis by human C3-C9; (iii) Test Code 036 (C-Shunt inhibitor)--In this test human erythrocytes rendered fragile are lysed in autologous serum via the shunt pathway activated by cobra venom factor in the presence of appropriate dilutions of the test compound. Inhibition of the shunt pathway results in failure of lysis; (iv) Forssman Vasculitis Test--Here, the well known complement dependent lesions, Forssman vasculitis, is produced in guinea pigs by intradermal injection of rabbit anti-Forssman antiserum. […] Percent inhibition are calculated by comparison with simultaneous controls. […]

complement = complement inhibiting activity using the tests disclosed herein; conditions: stated in words
Description: as §2

| Compound | 026 (C1 inhibitor), activity in wells (activated human C1) | 035 (C3-C9 inhibitor) [1] | 036 (C-Shunt inhibitor) [2] | In vivo activity (Guinea Pig) Intraperitoneal % Inhibition, 30 minutes ([3]; serum complement 30 minutes after injection) | In vivo activity (Guinea Pig) Intraperitoneal % Inhibition, 60 minutes ([3]; serum complement 60 minutes after injection) | In vivo activity (Guinea Pig) Intraperitoneal % Inhibition, 120 minutes ([3]; serum complement 120 minutes after injection) | Forssman Shock (harmonic mean death time) (guinea pigs) | complement inhibiting activity (complement) |
| --- | --- | --- | --- | --- | --- | --- | --- | --- |
| C[C@@H]1O[C@@H](OC[C@H]2O[C@@H](Oc3c(-c4ccc(O)c(O)c4)oc4cc(O)cc(O)c4c3=O)[C@H](O)[C@@H](O)[C@@H]2O)[C@H](O)[C@H](O)[C@H]1O [Rutin] | N | N | N | – | – | – | – | – |
| Rutin poly(H-)sulfate, sodium salt | +7 wells | N | N | -79% | -89% | -89% | 17.2 min | – |
| Rutin poly(H-)sulfate, sodium salt (original source commercial `Rutin water soluble`) | – | – | – | – | – | – | – | highly active |
| Rutin poly(H-)sulfate, trimethylamine salt | +2 wells | N | N | – | – | – | – | – |
